Assay results taken from patent US11510852B2 (THE ROYAL INSTITUTION FOR THE ADVANCEMENT OF …, priority 2019, dated 2022).

Assays:
[1] = UV visible spectroscopy of supernatant after addition of hydroxy-apatite powder; type: binding; details: 306 nm MeSa, 272 nm thymol
Description: (§1) To analyze how the different tested molecules (methyl salicylate, thymol and spearmint oil) interact with composite and the tooth structure UV Visible spectroscopy was used. Dilute solutions of the three tested molecules were prepared. […] The resulting solutions were analyzed in triplicates using UV visible spectrophotometer (Evolution 200 series, Thermo Scientific, Madison, USA) and the resulting absorbance peaks were plotted as control (FIG. 1). After this, equal weights of composite resin and hydroxy-apatite powders were added to equal volumes of the diluted solutions of the three tested molecules.
(§2) The characterization of the interaction between the staining components and both composite resin and the tooth structure was performed using UV visible spectroscopy which was chosen to characterize indirectly the insoluble powder; a method that is largely used in pharmaceutical industry. In this method, different weights of insoluble polymer are added to a known concentration of a solute with a clear fingerprint in UV-vis spectrum. After each addition, the filtered solutions are then analyzed using UV-vis spectrophotometer and the resultant effect on the UV spectrum is compared to the baseline readings.

[2] = UV visible spectroscopy of supernatant after addition of composite resin powder; type: binding; details: 306 nm methyl salicylate, 272 nm thymol
Description: as §1, §2

Compound | change of main absorbance peak ([1]; 0.3 g hydroxy-apatite) | change of main absorbance peak ([1]; 0.5 g hydroxy-apatite) | change of main absorbance peak ([1]; 0.8 g hydroxy-apatite) | decrease of main absorbance peak ([2]; 0.3 g composite resin) | decrease of main absorbance peak ([2]; 0.5 g composite resin) | decrease of main absorbance peak ([2]; 0.8 g composite resin)
COC(=O)c1ccccc1O [methyl salicylate] | 13±22% | 11±14% | 1.1±15% | 37±3.9% | 38±25% | 85±12%
Cc1ccc(C(C)C)c(O)c1 [thymol] | 14±3.3% | 10±9.2% | 7±1.6% | 47±17% | 55±1.2% | 66±2.9%
